Common to all, as to assay type: biochemical
For assay [1], the target named is T1, JAK3 (Homo sapiens, UniProt P52333).
T1 sequence (P52333 1-1124): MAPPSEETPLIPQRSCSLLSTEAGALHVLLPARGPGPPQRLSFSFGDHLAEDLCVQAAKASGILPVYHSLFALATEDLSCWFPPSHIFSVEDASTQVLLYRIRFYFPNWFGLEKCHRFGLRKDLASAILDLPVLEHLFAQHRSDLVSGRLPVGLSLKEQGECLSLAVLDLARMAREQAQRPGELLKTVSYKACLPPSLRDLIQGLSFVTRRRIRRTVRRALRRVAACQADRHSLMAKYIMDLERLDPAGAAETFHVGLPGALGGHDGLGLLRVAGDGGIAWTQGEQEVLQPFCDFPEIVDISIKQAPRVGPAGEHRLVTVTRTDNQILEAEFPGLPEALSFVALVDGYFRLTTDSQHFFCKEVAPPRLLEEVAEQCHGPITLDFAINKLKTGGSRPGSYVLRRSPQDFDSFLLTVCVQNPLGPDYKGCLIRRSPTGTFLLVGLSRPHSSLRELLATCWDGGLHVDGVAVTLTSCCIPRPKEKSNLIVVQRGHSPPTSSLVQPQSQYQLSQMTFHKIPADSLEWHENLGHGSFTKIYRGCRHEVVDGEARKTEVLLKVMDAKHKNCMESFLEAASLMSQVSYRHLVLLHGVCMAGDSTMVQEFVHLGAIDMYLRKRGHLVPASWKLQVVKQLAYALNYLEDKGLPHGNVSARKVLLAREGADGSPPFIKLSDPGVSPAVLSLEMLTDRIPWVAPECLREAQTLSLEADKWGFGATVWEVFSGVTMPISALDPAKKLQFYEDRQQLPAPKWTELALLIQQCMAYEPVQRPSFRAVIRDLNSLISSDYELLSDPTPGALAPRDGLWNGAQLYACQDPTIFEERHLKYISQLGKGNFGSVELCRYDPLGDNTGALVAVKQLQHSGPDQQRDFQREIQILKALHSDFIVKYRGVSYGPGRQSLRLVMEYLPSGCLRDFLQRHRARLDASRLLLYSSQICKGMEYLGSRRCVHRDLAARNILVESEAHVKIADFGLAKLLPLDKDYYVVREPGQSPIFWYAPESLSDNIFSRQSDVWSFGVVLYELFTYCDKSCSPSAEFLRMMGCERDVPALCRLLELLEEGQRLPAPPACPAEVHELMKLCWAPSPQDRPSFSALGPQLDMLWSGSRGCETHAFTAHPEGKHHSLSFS
The assay can be described thus: Inhibition of a panel of kinases, in vitro HotSpot kinase assay: JAK3. The conditions noted are these: 1 μM ATP, read-out: JAK3 (IC50).

The target in assay [2] is T2, BTK-WT (Homo sapiens, UniProt Q06187).
T2 construct: purified from insect cells as a full-length construct containing an N-terminal 6X-His tag; His6 (N); made in house; host or cells: insect cells (baculovirus Sf21 in Method B)
T2 sequence (Q06187 whole entry): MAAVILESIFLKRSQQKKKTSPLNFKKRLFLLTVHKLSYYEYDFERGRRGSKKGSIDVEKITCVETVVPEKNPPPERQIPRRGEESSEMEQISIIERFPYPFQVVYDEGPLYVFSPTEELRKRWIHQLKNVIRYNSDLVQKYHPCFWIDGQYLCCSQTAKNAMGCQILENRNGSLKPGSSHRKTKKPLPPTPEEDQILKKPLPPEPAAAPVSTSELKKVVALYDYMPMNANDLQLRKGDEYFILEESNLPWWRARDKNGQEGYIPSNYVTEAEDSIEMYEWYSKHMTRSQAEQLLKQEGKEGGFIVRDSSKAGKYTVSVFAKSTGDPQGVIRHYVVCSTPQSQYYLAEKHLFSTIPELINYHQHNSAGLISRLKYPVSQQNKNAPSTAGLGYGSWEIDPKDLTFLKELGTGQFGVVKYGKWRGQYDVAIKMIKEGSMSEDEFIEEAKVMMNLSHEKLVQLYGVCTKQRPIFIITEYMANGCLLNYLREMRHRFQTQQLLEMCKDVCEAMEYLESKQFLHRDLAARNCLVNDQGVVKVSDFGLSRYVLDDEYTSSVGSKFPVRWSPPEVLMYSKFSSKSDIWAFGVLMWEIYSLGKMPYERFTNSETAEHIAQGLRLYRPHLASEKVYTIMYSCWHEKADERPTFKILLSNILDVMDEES
Briefly: Btk in vitro inhibitory activity (one of Method A TR-FRET, Method B electrophoretic mobility shift, Method C radiometric filter binding). The conditions noted are these: read-out: BTK-WT (IC50). In general terms: In EMSA bound probe runs differently from free probe, usually more slowly.

In assay [3] the target is LCK (Homo sapiens, UniProt P06239). Briefly: Inhibition of a panel of kinases, in vitro HotSpot kinase assay: LCK. Conditions: 1 μM ATP, read-out: LCK (IC50).
Sequence of LCK (P06239 whole entry): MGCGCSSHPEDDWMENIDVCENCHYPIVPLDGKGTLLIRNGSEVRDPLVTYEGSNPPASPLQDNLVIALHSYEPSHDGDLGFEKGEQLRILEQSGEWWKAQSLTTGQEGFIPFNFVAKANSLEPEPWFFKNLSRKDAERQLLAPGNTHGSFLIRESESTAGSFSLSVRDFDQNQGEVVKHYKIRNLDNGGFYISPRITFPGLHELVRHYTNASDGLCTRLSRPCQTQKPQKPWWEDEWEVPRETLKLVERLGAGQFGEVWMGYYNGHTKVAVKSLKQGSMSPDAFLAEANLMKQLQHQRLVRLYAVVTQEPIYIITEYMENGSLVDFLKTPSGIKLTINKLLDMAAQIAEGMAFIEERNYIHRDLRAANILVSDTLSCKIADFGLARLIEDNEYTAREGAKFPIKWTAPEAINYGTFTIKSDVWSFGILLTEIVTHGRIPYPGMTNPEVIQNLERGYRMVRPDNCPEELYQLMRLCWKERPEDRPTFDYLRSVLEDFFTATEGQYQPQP

Our source for the IC50 values is US20210070748A1, “INHIBITORS OF BRUTONS TYROSINE KINASE” (Pharmacyclics LLC, priority 2015, published 2021).

The structures appear in SMILES notation. Where a name gives a salt, the structure may show the parent alone. Read-outs that look alike come from different tables or passages of the source.

One may read the IC50 as the midpoint of a concentration-inhibition curve. Consider `NC(=O)c1ncc(N2CCC[C@@H](NC(=O)c3ccccc3)C2)nc1Nc1ccc2ncccc2c1` [Example A-45, 5-[(3R)-3-benzamidopiperidin-1-yl]-3-[(quinolin-6-yl)amino]pyrazine-2-carboxamide], for which the IC50 in assay [1] (Table 10, Formula A-I) was 1000 to 10000 nM; in assay [2] (Table 10, Formula A-I), at most 100 nM; in assay [3] (Table 10, Formula A-I), over 10000 nM.

For `Cc1cc(Nc2nc(N3CCC[C@@H](NC(=O)N4Cc5ccccc5C4)C3)cnc2C(N)=O)sn1` [Example A-17, N-[(3R)-1-{5-carbamoyl-6-[(3-methyl-1,2-thiazol-5-yl)amino]pyrazin-2-yl}piperidin-3-yl]-2,3-dihydro-1H-isoindole-2-carboxamide], the IC50 is 100 to 1000 nM in assay [1] (Table 10, Formula A-I); at most 100 nM in assay [2] (Table 10, Formula A-I); 100 to 1000 nM in assay [3] (Table 10, Formula A-I).

`NC(=O)c1ncc(N2CCC[C@@H](NC(=O)Nc3ccccc3)C2)nc1Nc1ccc(C2CCN(C3CCCC3)CC2)cc1` [Example A-2, 3-{[4-(1-cyclopentylpiperidin-4-yl)phenyl]amino}-5-[(3R)-3-[(phenylcarbamoyl)amino]piperidin-1-yl]pyrazine-2-carboxamide hydrochloride]: the IC50 is 100 to 1000 nM in assay [1] (Table 10, Formula A-I); at most 100 nM in assay [2] (Table 10, Formula A-I); under 100 nM in assay [3] (Table 10, Formula A-I).

`Cc1cc(Nc2nc(N[C@@H]3CCCN(C(=O)c4ccccc4)C3)cnc2C(N)=O)sn1` [Example C-3, 5-{[(3R)-1-benzoylpiperidin-3-yl]amino}-3-[(3-methyl-1,2-thiazol-5-yl)amino]pyrazine-2-carboxamide]: the IC50 in assay [1] (Table 12, Formula C-I) is over 10000 nM; in assay [2] (Table 12, Formula C-I), at most 100 nM; in assay [3] (Table 12, Formula C-I), over 10000 nM.

As for `CN1CCN(C(=O)c2ccc(Nc3nc(N[C@H]4CC[C@@H](NC(=O)N(C)C)CC4)cnc3C(N)=O)cc2)CC1` [Example B-16, 5-((1s,4s)-4-(3,3-dimethyl-ureido)cyclohexyl-amino)-3-(4-(4-methylpiperazine-1-carbonyl)phenylamino) pyrazine-2-carboxamide], the IC50 in assay [1] (Table 11, Formula B-I) was 1000 to 10000 nM; in assay [2] (Table 11, Formula B-I), at most 100 nM; in assay [3] (Table 11, Formula B-I), under 100 nM.

`C=CC(=O)N1CC[C@@H](Nc2nnc(C(N)=O)c(Nc3ccc(C(C)C)cc3)n2)C1` [Example C-32, (R)-3-(1-acryloylpyrrolidin-3-ylamino)-5-(4-isopropylphenylamino)-1,2,4-triazine-6-carboxamide]: the IC50 in assay [1] (Table 12, Formula C-I) was under 100 nM; in assay [2] (Table 12, Formula C-I), at most 100 nM; in assay [3] (Table 12, Formula C-I), 100 to 1000 nM.

For `C[C@@H]1[C@H](NC(=O)N(C)C)CCCN1c1cnc(C(N)=O)c(Nc2ccc3ncccc3c2)n1` [Example A-59, 5-[(2R,3R)-3-[(dimethylcarbamoyl)amino]-2-methylpiperidin-1-yl]-3-[(quinolin-6-yl)amino]pyrazine-2-carboxamide], the IC50 in assay [1] (Table 10, Formula A-I) was 1000 to 10000 nM; in assay [2] (Table 10, Formula A-I), at most 100 nM; in assay [3] (Table 10, Formula A-I) it was 100 to 1000 nM.

As to `Cc1cc(Nc2nc(N[C@@H]3CCN(C(=O)c4ccccc4)C3)cnc2C(N)=O)sn1` [Example C-11, 5-{[(3R)-1-benzoylpyrrolidin-3-yl]amino}-3-[(3-methyl-1,2-thiazol-5-yl)amino]pyrazine-2-carboxamide hydrochloride], the IC50 in assay [1] (Table 12, Formula C-I) was 1000 to 10000 nM; in assay [2] (Table 12, Formula C-I), at most 100 nM; in assay [3] (Table 12, Formula C-I), 1000 to 10000 nM.

As for `CN1CCN(C(=O)c2ccc(Nc3nc(NC4CCC(NC(=O)c5ccc(C6CC6)cc5F)CC4)cnc3C(N)=O)cc2)CC1` (stereo not drawn) [Example B-15, 5-(4-(4-cyclopropyl-2-fluoro-benzamido)cyclohexyl-amino)-3-(4-(4-methylpiperazine-1-carbonyl)phenylamino) pyrazine-2-carboxamide], the IC50 in assay [1] (Table 11, Formula B-I) is under 100 nM; in assay [2] (Table 11, Formula B-I) it was at most 100 nM; in assay [3] (Table 11, Formula B-I) it was under 100 nM.

Consider `Cc1cc(Nc2nc(N3CCC[C@H](NC(=O)c4ccc(N(C)C)cc4)[C@@H]3C)cnc2C(N)=O)sn1` [Example A-54, 5-[(2S,3S)-3-[4-(dimethylamino)benzamido]-2-methylpiperidin-1-yl]-3-[(3-methyl-1,2-thiazol-5-yl)amino]pyrazine-2-carboxamide], for which the IC50 in assay [1] (Table 10, Formula A-I) is 1000 to 10000 nM; in assay [2] (Table 10, Formula A-I) it was at most 100 nM; in assay [3] (Table 10, Formula A-I), 100 to 1000 nM.

Take `Cc1cc(Nc2nc(N3CCC[C@@H](NC(=O)c4cccc(F)c4)C3)cnc2C(N)=O)sn1` [Example A-22, 5-[(3R)-3-(3-fluorobenzamido)piperidin-1-yl]-3-[(3-methyl-1,2-thiazol-5-yl)amino]pyrazine-2-carboxamide]: the IC50 is 100 to 1000 nM in assay [1] (Table 10, Formula A-I); at most 100 nM in assay [2] (Table 10, Formula A-I); 100 to 1000 nM in assay [3] (Table 10, Formula A-I).

As to `Cc1cc(Nc2nc(N3CCC[C@@H](NC(=O)c4ccc(C(C)C)cc4)C3)cnc2C(N)=O)sn1` [Example A-30, 3-[(3-methyl-1,2-thiazol-5-yl)amino]-5-[(3R)-3-[4-(propan-2-yl)benzamido]piperidin-1-yl]pyrazine-2-carboxamide], the IC50 is 1000 to 10000 nM in assay [1] (Table 10, Formula A-I); at most 100 nM in assay [2] (Table 10, Formula A-I); over 10000 nM in assay [3] (Table 10, Formula A-I).

As to `C=CC(=O)N1CC[C@H](Nc2nnc(C(N)=O)c(Nc3ccc(C(C)C)cc3)n2)C1` [Example C-31, (S)-3-(1-acryloylpyrrolidin-3-ylamino)-5-(4-isopropylphenylamino)-1,2,4-triazine-6-carboxamide], the IC50 in assay [1] (Table 12, Formula C-I) was under 100 nM; in assay [2] (Table 12, Formula C-I) it was at most 100 nM; in assay [3] (Table 12, Formula C-I), 100 to 1000 nM.

Consider `C=CC(=O)N[C@@H]1CCCN(c2cnc(C(N)=O)c(Nc3ccc(C4CCN(C5CCCC5)CC4)cc3)n2)C1` [Example A-84, (R)-5-(3-acrylamidopiperidin-1-yl)-3-(4-(1-cyclopentylpiperidin-4-yl)phenylamino)pyrazine-2-carboxamide], for which the IC50 in assay [1] (Table 10, Formula A-I) is under 100 nM; in assay [2] (Table 10, Formula A-I), at most 100 nM; in assay [3] (Table 10, Formula A-I), under 100 nM.

Regarding `CN1CCN(C(=O)c2ccc(Nc3nc(NC4CCC(NC(=O)N(C)C)CC4)cnc3C(N)=O)cc2)CC1` (stereo not drawn) [Example B-13, 5-(4-(3,3-dimethylureido)cyclo-hexylamino)-3-(4-(4-methylpiperazine-1-carbonyl)phenylamino) pyrazine-2-carboxamide], the half-inhibitory concentration (IC50) was 100 to 1000 nM in assay [1] (Table 11, Formula B-I); at most 100 nM in assay [2] (Table 11, Formula B-I); under 100 nM in assay [3] (Table 11, Formula B-I).

Turning to `Cc1cccc(NC(=O)N[C@@H]2CCCN(c3cnc(C(N)=O)c(Nc4cc(C)ns4)n3)C2)c1` [Example A-10, 3-[(3-methyl-1,2-thiazol-5-yl)amino]-5-[(3R)-3-{[(3-methylphenyl)carbamoyl]amino}piperidin-1-yl]pyrazine-2-carboxamide], the IC50 in assay [1] (Table 10, Formula A-I) is 1000 to 10000 nM; in assay [2] (Table 10, Formula A-I), at most 100 nM; in assay [3] (Table 10, Formula A-I), 100 to 1000 nM.

`CN(C)c1ccc(C(=O)N[C@@H]2CCCN(c3cnc(C(N)=O)c(Nc4ccc(C5CCN(C6CCCC6)CC5)cc4)n3)C2)cc1` [Example A-7, 3-{[4-(1-cyclopentylpiperidin-4-yl)phenyl]amino}-5-[(3R)-3-[4-(dimethylamino)benzamido]piperidin-1-yl]pyrazine-2-carboxamide hydrochloride]: the IC50 in assay [1] (Table 10, Formula A-I) is 100 to 1000 nM; in assay [2] (Table 10, Formula A-I), at most 100 nM; in assay [3] (Table 10, Formula A-I) it was 100 to 1000 nM.

For `Cc1cc(Nc2nc(N3CCC[C@H](NC(=O)N(C)C)[C@@H]3C)cnc2C(N)=O)sn1` [Example A-58, 5-[(2S,3S)-3-[(dimethylcarbamoyl)amino]-2-methylpiperidin-1-yl]-3-[(3-methyl-1,2-thiazol-5-yl)amino]pyrazine-2-carboxamide], the IC50 in assay [1] (Table 10, Formula A-I) was 1000 to 10000 nM; in assay [2] (Table 10, Formula A-I), at most 100 nM; in assay [3] (Table 10, Formula A-I), 1000 to 10000 nM.

For `Cc1cc(Nc2nc(N[C@@H]3CCN(C(=O)c4ccc(N(C)C)cc4)C3)cnc2C(N)=O)sn1` [Example C-13, 5-([(3R)-1-[4-(dimethylamino)benzoyl]pyrrolidin-3-yl]amino)-3-[(3-methyl-1,2-thiazol-5-yl)amino]pyrazine-2-carboxamide], the IC50 in assay [1] (Table 12, Formula C-I) was 1000 to 10000 nM; in assay [2] (Table 12, Formula C-I), at most 100 nM; in assay [3] (Table 12, Formula C-I) it was 1000 to 10000 nM.
